Measurements taken from US20050215433A1, “Aromatic fluid as agricultural solvent” (priority 2004, published 2005).

Key:
Format in all cases: physicochemical
[1] = Mixed Aniline Point, variation of ASTM D-611-82; conditions: 10 milliliters aniline + 5 milliliters sample + 5 milliliters n-heptane
Experimental: For the Mixed Aniline Point, 10 milliliters of aniline was added to a test tube. The test tube was fitted with a suitable stirrer and thermometer. The thermometer was centered in the test tube and some padding was kept at the base of the stand to avoid breakage of the test tube if it slipped. […] Added to the test tube containing aniline was 5 milliliters of sample and 5 milliliters of n-heptane. The test tube was placed into a cooling bath of isopropyl alcohol and dry ice. The mixture was continuously stirred rapidly using 2 inch strokes, avoiding introduction of air bubbles. The mixture was allowed to cool below the first appearance of turbidity and the Mixed Aniline Point was recorded.

[2] = Kauri Butanol Value, variation of ASTM D-1133-02; conditions: 20 grams kauri-butanol solution titrated with the solvent
Experimental: Kauri Butanol Value was determined by a variation of ASTM D-1133-02. In a […] Erlenmeyer flask, 20 grams (±0.1 grams) of kauri-butanol solution was added. The flask was placed in a water bath at 20° C. (±1° C.). A 50-milliliter burette was filled with the solvent being tested. The standardized kauri-butanol solution was titrated with the solvent being tested until the end point was reached. A photocopy of the residence listings from a telephone book was used as the 10 point print sample placed directly beneath the water bath. The tester looked through the liquid at the print to observe the end point. […] The volume in milliliters of solvent added to the flask to produce turbidity was recorded. The kauri-butanol values were calculated using the following formula: Kauri-Butanol value=[65(C−B)/(A−B)]+40 (1) where A is the milliliters of toluene required to titrate 20 grams of kauri-butanol solution (the A factor should be on the certificate of analysis that accompanies the standardized kauri-butanol solution); • B is the milliliters of n-heptane-toluene blend required to titrate 20 grams of kauri butanol solution (the B factor should be on the certificate of analysis that accompanies the standardized kauri-butanol solution); and • C is the milliliters of solvent being tested that are required to titrate 20 grams of kauri-butanol solution. […]

[3] = Solubility of pesticide in the solvent (highest concentration without crystallization); conditions: no crystals after seeding; for Solubility in Weight %: Bromoxynil Octanoate: pesticide Bromoxynil Octanoate dissolved in the solvent; for Solubility in Weight %: Chlorpyrifos: pesticide Chlorpyrifos dissolved in the solvent; for Solubility in Weight %: Pendimethalin: pesticide Pendimethalin dissolved in the solvent; for Solubility in Weight %: Permethrin: pesticide Permethrin dissolved in the solvent; for Solubility in Weight %: Trifluralin: pesticide Trifluralin dissolved in the solvent
Experimental: Solubility was determined by adding a predetermined weight of pesticide to a vial and then adding the solvent to within 10 grams to make the appropriate concentrations. Several different concentrations were made. […] The vials were capped and inverted several times to completely dissolve the pesticide. If the pesticide was not completely dissolved, the vials were placed in a beaker filled with warm water until the pesticide dissolved. The water was not heated closer than 30° C. of the flash point of the solvent being tested. The vial was removed from the heated beaker and was left to stand for 3 hours at room temperature. The vial was then placed into a chiller, an ethylene glycol bath, if a lower temperature was desired. […] If crystals were present, the solutions in the vials were diluted, the vials were inverted several times, the vials were either heated or cooled, and the vials were checked for crystals. The vials were allowed to stand for 24 hours and were then rechecked for crystals. If crystals were still absent after 24 hours, one crystal of pesticide was added to the vial (seeding) and the vial was inverted several times to assure the crystal was dissolved. The vial was left to stand for 48 hours and rechecked for crystals. If crystals were present, the solution was diluted further and the previous steps were repeated until no crystals appeared after seeding. […] The test was started again at the beginning with higher concentrations of the pesticide in the solvent.

Compound	Mixed Aniline Point [1]	Kauri-Butanol Value [2]	Solubility in Weight %: Bromoxynil Octanoate [3]	Solubility in Weight %: Chlorpyrifos [3]	Solubility in Weight %: Pendimethalin [3]	Solubility in Weight %: Permethrin [3]	Solubility in Weight %: Trifluralin [3]
Cc1cc(C)cc(C(C)(C)C)c1 [Example 5, 5-ter-Butyl-m-Xylene]	28 °C	66	61 Weight %	65 Weight %	35 Weight %	65 Weight %	50 Weight %
CN1CCCC1=O [Example 10, 1-Methyl-2-Pyrrilidinone]	–	–	75 Weight %	80 Weight %	55 Weight %	75 Weight %	70 Weight %
CCCCCCCCCCCCc1ccccc1 [Example 17, Dodecyl Benzene]	43 °C	36	40 Weight %	50 Weight %	20 Weight %	45 Weight %	25 Weight %
Dipentylindan [Example 12]	–	–	25 Weight %	40 Weight %	<15 Weight %	50 Weight %	<15 Weight %
Monopentylindan [Example 11]	–	–	50 Weight %	60 Weight %	25 Weight %	65 Weight %	35 Weight %
